Tests used:
Test in all cases: KinomeScan profiling
Assay type in all cases: binding
BMPR2 = target: T1, BMPR2 (Homo sapiens, UniProt Q13873); conditions: BMPR2, 1 μM; read-out: % control
T1 construct: purchased KinomeScan®
T1 sequence (Q13873 27-1038): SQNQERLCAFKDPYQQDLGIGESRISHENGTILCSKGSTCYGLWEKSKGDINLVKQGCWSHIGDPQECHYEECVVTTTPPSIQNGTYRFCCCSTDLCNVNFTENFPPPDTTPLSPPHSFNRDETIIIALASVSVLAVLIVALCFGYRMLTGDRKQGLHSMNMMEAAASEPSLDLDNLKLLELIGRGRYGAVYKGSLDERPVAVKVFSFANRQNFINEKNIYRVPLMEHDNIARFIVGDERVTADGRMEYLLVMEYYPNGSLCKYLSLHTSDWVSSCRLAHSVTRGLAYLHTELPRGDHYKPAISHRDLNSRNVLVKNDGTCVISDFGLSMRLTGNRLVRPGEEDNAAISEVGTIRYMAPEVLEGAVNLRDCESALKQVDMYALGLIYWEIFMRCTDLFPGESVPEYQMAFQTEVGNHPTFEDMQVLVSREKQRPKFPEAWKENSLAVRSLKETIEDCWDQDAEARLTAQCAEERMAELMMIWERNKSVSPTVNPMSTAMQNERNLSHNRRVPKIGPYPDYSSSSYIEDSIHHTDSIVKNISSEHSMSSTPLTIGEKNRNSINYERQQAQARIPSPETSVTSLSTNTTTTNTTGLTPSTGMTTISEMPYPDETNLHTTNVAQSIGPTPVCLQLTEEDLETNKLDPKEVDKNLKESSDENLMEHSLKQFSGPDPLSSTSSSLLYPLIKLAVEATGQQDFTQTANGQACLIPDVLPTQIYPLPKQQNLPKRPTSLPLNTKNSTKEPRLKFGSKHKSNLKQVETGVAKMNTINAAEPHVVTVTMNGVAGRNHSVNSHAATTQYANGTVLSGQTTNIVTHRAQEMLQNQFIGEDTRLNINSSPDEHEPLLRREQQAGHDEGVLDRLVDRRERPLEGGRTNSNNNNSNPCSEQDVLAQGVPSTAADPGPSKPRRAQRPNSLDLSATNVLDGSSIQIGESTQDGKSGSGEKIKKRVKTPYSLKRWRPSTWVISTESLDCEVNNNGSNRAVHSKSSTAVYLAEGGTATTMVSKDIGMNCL
How it was run: (§1)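 Single-point competition binding screen: 1 μM, DMSO, 468 kinases. Results reported as % control from RLU, normalised to DMSO and positive-control wells. Activity threshold: <35% control.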

[1] = target: T2, ABL1(T315I)-phosphorylated (Homo sapiens, UniProt P00519, T315I); conditions: read-out: % control
T2 construct: purchased KinomeScan®
How it was run: as §1

LCK = LCK (Homo sapiens, UniProt P06239); conditions: read-out: % control
Chain of LCK (P06239 whole entry): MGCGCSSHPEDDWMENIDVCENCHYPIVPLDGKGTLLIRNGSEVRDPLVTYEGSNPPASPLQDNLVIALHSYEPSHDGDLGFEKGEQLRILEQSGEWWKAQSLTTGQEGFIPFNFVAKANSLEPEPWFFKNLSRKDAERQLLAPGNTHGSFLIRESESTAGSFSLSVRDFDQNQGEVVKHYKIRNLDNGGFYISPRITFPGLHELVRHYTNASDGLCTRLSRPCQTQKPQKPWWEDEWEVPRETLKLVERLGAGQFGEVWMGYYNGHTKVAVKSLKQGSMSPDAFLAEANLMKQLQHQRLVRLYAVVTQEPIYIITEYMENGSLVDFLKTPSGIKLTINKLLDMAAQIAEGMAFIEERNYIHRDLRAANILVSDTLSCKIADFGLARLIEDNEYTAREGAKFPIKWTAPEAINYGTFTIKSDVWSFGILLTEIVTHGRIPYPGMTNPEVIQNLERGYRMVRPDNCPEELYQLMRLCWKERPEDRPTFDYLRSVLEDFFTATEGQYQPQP
How it was run: as §1

CDC2L5 = CDC2L5 (Homo sapiens, UniProt Q14004); conditions: CDC2L5, 1 μM; read-out: % control
Chain of CDC2L5 (Q14004 whole entry): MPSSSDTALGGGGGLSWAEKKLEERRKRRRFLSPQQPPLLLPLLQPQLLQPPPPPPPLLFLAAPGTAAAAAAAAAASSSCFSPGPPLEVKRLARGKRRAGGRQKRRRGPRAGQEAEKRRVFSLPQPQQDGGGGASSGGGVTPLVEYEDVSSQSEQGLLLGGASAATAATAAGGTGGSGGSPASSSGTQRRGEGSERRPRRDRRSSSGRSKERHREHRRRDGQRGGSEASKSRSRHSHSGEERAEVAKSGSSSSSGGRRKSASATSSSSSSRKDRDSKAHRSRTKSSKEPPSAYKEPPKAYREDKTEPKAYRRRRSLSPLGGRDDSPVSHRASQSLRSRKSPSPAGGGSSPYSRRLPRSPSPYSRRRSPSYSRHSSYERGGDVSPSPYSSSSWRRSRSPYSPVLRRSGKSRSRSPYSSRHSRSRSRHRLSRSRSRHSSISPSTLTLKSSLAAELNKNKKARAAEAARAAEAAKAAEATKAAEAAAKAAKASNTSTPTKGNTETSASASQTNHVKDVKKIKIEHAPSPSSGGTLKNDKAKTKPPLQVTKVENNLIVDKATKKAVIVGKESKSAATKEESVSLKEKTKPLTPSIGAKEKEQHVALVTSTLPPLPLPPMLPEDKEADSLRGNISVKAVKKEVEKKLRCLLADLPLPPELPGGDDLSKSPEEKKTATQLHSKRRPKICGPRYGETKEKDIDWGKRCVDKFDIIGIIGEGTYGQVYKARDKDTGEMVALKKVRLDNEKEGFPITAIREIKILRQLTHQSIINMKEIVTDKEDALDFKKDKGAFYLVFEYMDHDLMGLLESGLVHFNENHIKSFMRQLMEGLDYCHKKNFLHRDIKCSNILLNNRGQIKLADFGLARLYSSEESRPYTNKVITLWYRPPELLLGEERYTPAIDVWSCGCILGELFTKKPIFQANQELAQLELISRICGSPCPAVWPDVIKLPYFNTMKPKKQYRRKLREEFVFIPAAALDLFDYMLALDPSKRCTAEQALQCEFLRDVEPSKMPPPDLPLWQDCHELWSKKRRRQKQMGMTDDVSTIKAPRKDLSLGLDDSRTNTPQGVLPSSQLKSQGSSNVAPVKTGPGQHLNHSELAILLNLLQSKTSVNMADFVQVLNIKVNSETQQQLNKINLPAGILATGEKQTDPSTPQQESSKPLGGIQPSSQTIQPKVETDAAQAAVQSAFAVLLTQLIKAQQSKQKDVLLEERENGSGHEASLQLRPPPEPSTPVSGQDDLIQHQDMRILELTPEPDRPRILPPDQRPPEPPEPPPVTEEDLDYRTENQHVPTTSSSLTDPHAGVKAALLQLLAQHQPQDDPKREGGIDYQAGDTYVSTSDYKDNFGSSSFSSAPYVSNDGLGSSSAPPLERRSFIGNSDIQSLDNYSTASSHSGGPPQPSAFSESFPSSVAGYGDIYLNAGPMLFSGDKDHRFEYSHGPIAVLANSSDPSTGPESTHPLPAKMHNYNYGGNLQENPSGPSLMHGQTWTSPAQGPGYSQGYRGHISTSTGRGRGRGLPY
How it was run: as §1

PIK3CA(C420R) = target: T3, PIK3CA(C420R) (Homo sapiens, UniProt P42336, C420R); conditions: read-out: % control
T3 construct: purchased KinomeScan® (panel service)
T3 sequence (P42336 whole entry C420R): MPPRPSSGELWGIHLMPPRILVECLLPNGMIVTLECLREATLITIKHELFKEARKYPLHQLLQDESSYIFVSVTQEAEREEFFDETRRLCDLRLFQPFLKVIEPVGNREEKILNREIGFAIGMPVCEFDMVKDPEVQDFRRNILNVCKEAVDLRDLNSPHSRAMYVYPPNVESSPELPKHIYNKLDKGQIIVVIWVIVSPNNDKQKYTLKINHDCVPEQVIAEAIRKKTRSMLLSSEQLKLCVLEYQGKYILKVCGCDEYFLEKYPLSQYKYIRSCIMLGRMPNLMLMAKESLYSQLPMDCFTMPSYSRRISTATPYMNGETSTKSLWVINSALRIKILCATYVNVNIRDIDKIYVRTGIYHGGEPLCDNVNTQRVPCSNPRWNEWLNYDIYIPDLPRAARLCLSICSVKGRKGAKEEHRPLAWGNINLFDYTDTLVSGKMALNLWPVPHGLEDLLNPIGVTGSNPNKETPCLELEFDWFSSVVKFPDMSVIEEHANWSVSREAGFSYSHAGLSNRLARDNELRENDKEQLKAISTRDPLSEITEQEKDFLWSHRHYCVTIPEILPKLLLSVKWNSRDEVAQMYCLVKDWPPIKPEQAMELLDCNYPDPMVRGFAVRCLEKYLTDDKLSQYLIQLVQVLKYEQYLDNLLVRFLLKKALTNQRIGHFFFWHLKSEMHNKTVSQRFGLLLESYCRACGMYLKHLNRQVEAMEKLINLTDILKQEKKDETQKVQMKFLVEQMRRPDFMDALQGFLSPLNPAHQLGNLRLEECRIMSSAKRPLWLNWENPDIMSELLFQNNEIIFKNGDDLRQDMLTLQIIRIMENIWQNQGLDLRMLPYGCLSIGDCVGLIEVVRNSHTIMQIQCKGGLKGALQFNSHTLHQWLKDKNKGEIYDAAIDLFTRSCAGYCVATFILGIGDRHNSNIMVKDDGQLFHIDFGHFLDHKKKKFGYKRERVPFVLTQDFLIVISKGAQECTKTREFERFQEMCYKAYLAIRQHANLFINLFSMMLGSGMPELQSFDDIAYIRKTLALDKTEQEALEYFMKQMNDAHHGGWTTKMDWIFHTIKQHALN
How it was run: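 Compounds were screened at 1 μM in DMSO across a 468-kinase KinomeScan panel. Binding was expressed as % control, scaled between a positive control (0%) and DMSO (100%) using luminescence signal. A value under 35% counted as active.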

RIOK2 = RIOK2 (Homo sapiens, UniProt Q9BVS4); conditions: RIOK2, 1 μM; read-out: % control
Chain of RIOK2 (Q9BVS4 whole entry): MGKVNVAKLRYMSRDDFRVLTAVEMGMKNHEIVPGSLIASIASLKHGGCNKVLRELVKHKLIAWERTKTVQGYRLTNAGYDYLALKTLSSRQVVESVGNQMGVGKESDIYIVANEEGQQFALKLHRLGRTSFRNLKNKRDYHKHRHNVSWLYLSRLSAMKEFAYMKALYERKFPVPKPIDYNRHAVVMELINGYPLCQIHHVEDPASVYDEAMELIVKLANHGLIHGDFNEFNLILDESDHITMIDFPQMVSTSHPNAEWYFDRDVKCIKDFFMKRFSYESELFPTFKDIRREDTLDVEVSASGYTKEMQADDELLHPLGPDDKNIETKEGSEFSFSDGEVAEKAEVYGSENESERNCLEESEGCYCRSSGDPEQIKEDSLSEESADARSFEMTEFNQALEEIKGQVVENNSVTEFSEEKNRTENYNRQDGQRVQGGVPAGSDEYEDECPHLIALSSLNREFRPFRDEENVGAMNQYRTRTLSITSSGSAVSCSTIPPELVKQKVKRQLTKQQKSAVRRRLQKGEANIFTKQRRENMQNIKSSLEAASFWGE
How it was run: as §1

CAMK1G = CAMK1G (Homo sapiens, UniProt Q96NX5); conditions: read-out: % control
Chain of CAMK1G (Q96NX5 whole entry): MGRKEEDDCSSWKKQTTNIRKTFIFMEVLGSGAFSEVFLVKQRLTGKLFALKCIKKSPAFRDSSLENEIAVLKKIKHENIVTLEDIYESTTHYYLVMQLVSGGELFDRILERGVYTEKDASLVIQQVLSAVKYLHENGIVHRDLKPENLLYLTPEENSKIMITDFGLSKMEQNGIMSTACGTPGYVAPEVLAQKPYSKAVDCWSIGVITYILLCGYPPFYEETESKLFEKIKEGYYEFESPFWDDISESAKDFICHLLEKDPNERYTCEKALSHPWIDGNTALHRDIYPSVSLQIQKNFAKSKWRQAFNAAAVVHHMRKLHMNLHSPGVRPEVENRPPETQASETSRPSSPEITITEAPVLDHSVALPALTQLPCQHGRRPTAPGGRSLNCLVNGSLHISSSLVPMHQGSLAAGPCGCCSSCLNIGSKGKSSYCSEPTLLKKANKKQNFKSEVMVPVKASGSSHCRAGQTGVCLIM
How it was run: as §1

AKT3 = target: T4, AKT3 (Homo sapiens, UniProt Q9Y243); conditions: AKT3, 1 μM; read-out: % control
T4 construct: purchased KinomeScan®
T4 sequence (Q9Y243 whole entry): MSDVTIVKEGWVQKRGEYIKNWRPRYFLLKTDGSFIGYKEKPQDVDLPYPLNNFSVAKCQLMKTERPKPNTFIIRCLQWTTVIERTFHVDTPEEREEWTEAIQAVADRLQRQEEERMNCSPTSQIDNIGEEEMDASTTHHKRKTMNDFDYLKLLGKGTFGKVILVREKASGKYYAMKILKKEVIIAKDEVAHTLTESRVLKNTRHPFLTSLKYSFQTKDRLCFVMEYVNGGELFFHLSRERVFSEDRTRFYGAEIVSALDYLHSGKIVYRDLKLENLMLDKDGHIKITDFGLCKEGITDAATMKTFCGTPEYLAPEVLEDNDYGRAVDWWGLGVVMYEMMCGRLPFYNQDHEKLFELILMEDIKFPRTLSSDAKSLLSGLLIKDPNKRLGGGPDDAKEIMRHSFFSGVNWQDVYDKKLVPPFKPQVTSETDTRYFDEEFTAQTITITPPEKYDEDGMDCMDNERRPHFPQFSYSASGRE
How it was run: as §1

CNc1c(-c2cnn([C@H]3CCN(C(C)=O)C[C@@H]3F)c2)cnc2[nH]cc(Cl)c12 [Compound 77, 1-((3S,4S)-4-(4-(3-chloro-4-(methylamino)-1H-pyrrolo[2,3-b]pyridin-5-yl)-1H-pyrazol-1-yl)-3-fluoropiperidin-1-yl)ethan-1-one]
remaining binding at 1 µM (BMPR2): 40% | remaining binding at 1 µM [1]: 31% | remaining binding at 1 µM (LCK): 96% | remaining binding at 1 µM (CDC2L5): 100% | remaining binding at 1 µM (PIK3CA(C420R)): 75% | remaining binding at 1 µM (RIOK2): 73% | remaining binding at 1 µM (CAMK1G): 100% | remaining binding at 1 µM (AKT3): 95%

CNc1c(-c2ccc(C(=O)N3CCC(N4CCOCC4)CC3)cc2)cnc2[nH]cc(Cl)c12 [Compound 96, (4-(3-chloro-4-(methylamino)-1H-pyrrolo[2,3-b]pyridin-5-yl)phenyl)(4-morpholinopiperidin-1-yl)methanone]
remaining binding at 1 µM (BMPR2): 53% | remaining binding at 1 µM [1]: 52% | remaining binding at 1 µM (LCK): 100% | remaining binding at 1 µM (CDC2L5): 100% | remaining binding at 1 µM (PIK3CA(C420R)): 75% | remaining binding at 1 µM (RIOK2): 26% | remaining binding at 1 µM (CAMK1G): 98% | remaining binding at 1 µM (AKT3): 100%

O=C(c1ccc(-c2cnc3[nH]cc(Cl)c3c2NC2CCCC2)cc1)N1CCC(N2CCOCC2)CC1 [Compound 101, (4-(3-chloro-4-(cyclopentylamino)-1H-pyrrolo[2,3-b]pyridin-5-yl)phenyl)(4-morpholinopiperidin-1-yl)methanone]
remaining binding at 1 µM (BMPR2): 98% | remaining binding at 1 µM [1]: 95% | remaining binding at 1 µM (LCK): 100% | remaining binding at 1 µM (CDC2L5): 2.1% | remaining binding at 1 µM (PIK3CA(C420R)): 100% | remaining binding at 1 µM (RIOK2): 28% | remaining binding at 1 µM (CAMK1G): 93% | remaining binding at 1 µM (AKT3): 99%

Reference: US12275731B2, “Azaindole inhibitors of wild-type and mutant forms of LRRK2” (DANA-FARBER CANCER INSTITUTE, INC., priority 2018, dated 2025)
